In patent US20100119612A1, “NANOPARTICLES COMPRISING NON-CRYSTALLINE DRUG” (Bend Research, Inc, priority 2007, published 2010):
Converted amounts (≈) assume the structure as drawn.

What was measured:
[1] = Log P of the drug; format: physicochemical; settings: octanol/water; method not stated
From the text: By hydrophobic is meant that the Log P of the drug is at least 4. The LogP of the drug may be at least 5, at least 6, or even at least 7. Log P, defined as the base 10 logarithm of the ratio of (1) the drug concentration in an octanol phase to (2) the drug concentration (in its unionized form if the drug may be ionized) in a water phase when the two phases are in equilibrium with each other, is a widely accepted measure of hydrophobicity. Log P may be measured experimentally or calculated using methods known in the art. When using a calculated value for Log P, the highest value calculated using any generally accepted method for calculating Log P is used. […] Preferably the Log P value is calculated by using the average value estimated using Crippen's, Viswanadhan's, and Broto's fragmentation methods.

[2] = Measurement of free drug by 19F NMR; format: physicochemical; settings: after 120 minutes; deuterated PBS with 2.0 wt % NaTC/POPC; 37° C.; 1000 μg/mL Drug 1 if all dissolved
Method: Alternatively, free drug for a nanoparticle suspension can be measured with nuclear magnetic resonance (NMR). In this method, the nanoparticles are equilibrated in an NMR tube with a buffered deuterium oxide solution. A specified amount of a reference standard is also added to the sample, such that the final concentration of the standard in the tube is known. An NMR spectrum is then acquired, and the integration of the drug peak(s) is compared to that of the reference standard to determine the actual dissolved drug concentration. Depending on the drug, either proton NMR (in which case a suitable reference standard is deuterated trimethylsilyl propionic acid) or fluorine NMR (in which case a suitable reference standard is trifiuoroacetic acid) may be employed. Because NMR is sensitive only to materials in the solution state or in micelles, only the drug that is not sequestered in nanopartides is measured by this method.
The solution was mixed, and an ^19F internal standard solution of trifluoroacetic acid (TFA) was added. […] This solution was vortexed 1 minute, and then carefully transferred to an 8 mm glass NMR tube.
Fluorine spectra of the sample was recorded at 282.327 MHz on a Varian Gemini 2000, 300 MHz NMR equipped with a Nalorac 8 mm indirect detection probe. […] Drug resonances were integrated relative to the internal standard peak and the drug concentration determined. […]

[3] = In vivo evaluation in dogs (Example 2, oral suspension, plasma LC/MS/MS); design: species or system male beagle dogs; settings: fasted dogs, oral gavage, approx. 50 mL of 1.2 mgA/mL suspension
Method: The nanoparticles of Example 2 were evaluated in vivo in dogs. Samples were dosed orally as a suspension to 6 male beagle dogs.
Animals were fasted overnight (at least 10 hours predose) through 8 hours postdose. Approximately 50 mL of suspension (1.2 mgA/mL) was administered to each dog via oral gavage, followed by approximately 5 mL water. Whole-blood samples (7-mL sodium heparin Vacutainer tubes) were taken from the jugular vein before dosing and at 0.5, 1, 2, 3, 4, 6, 8, 12, 24, and 28 hours after dosing. […] was harvested into tubes containing K2EDTA anticoagulant. Blood was maintained on wet ice prior to centrifugation to obtain plasma. Centrifugation began within 1 hour of collection, and samples were centrifuged at 2500 rpm for 15 minutes. Plasma was maintained on dry ice prior to storage at approximately −70° C. Plasma was analyzed using liquid chromatography with tandem mass spectrometry (LC/MS/MS). Crystalline Drug 1 was tested for comparison.

[4] = Solubility of crystalline drug in 2 wt % NaTC/POPC; format: physicochemical; settings: 2 wt % NaTC/POPC solution, fassgf or other biorelevant, thermodynamic from solid

logP [1]	Free Drug [2] [µg/mL]	AUC0-∞ [3]	Cmax [3]	Tmax [3]	solubility [4] [µg/mL]	Compound
~7.55	15	<LOQ	<LOQ*	<LOQ	–	CCOC(=O)N1c2ccc(C(F)(F)F)cc2[C@@H](N(Cc2cc(C(F)(F)F)cc(C(F)(F)F)c2)C(=O)OC)C[C@H]1CC [Drug 1, [2R,4S] 4-[(3,5-bis-trifluoromethyl-benzyl)-methoxycarbonyl-amino]-2-ethyl-6-trifluoromethyl-3,4-dihydro-2H-quinoline-1-carboxylic acid ethyl ester]
~7.55	–	–	–	–	~8 (≈ 13.4 µM)	CC[C@@H]1C[C@H](N(Cc2cc(C(F)(F)F)cc(C(F)(F)F)c2)C(C)=O)c2cc(C(F)(F)F)ccc2N1C(=O)OC(C)C [Drug 2, [2R,4S] 4-[acetyl-(3,5-bis-trifluoromethyl-benzyl)-amino]-2-ethyl-6-trifluoromethyl-3,4-dihydro-2H-quinoline-1-carboxylic acid isopropyl ester]
